This note sets out measurements from patent publication US7342012B2, “Inhibitors of αLβ2 mediated cell adhesion” (Mitsubishi Tanabe Pharma Corporation, priority 1999, dated 2008).

Each structure is given as a SMILES string. Counter-ions that a name gives are not always drawn.

The melting point is the temperature, or range, at which the solid turns liquid. `O=C1N(c2cc(Cl)nc(Cl)c2)C(=O)C2(Cc3ccc(Br)cc3)CCCN12` (centres unmarked) [Example 55, 3-(2,6-dichloro-4-pyridyl)-5-(4-bromobenzyl)-1,3-diazabicyclo[3.3.0]octane-2,4-dione] registered a melting point of 76.3 °C.

As to `O=C1N(c2cc(Cl)cc(Cl)c2)C(=O)C2(Cc3ccc(Br)cc3)C[C@@H](c3ccccc3)CN12` (stereo partly drawn) [Example 83, (7S)-5-(4-Bromobenzyl)-3-(3,5-dichlorophenyl)-7-phenyl-1,3-diazabicyclo[3.3.0]octane-2,4-dione], the melting point stood at 123.5 °C.

`C[S+]([O-])c1ccc(CC23CCCN2C(=O)N(c2cc(Cl)cc(Cl)c2)C3=O)cc1` (centres unmarked) [Example 189, 5-(4-Methylsulfinylbenzyl)-3-(3,5-dichlorophenyl)-1,3-diazabicyclo[3.3.0]octane-2,4-dione] returned a melting point of 71.2 °C.

In turn, `CC(C)(C)OC(=O)N1CCC2(Cc3ccc(C#N)cc3)C(=O)N(c3cc(Cl)nc(Cl)c3)C(=O)N12` (centres unmarked) [Example 56, 8-(t-Butoxycarbonyl)-5-(4-cyanobenzyl)-3-(2,6-dichloro-4-pyridyl)-1,3,8-triazabicyclo[3.3.0]octane-2,4-dione] displayed a melting point of 179 °C.

The molecule `O=C(O)CC1=CC2(Cc3ccc(Br)cc3)C(=O)N(c3cc(Cl)cc(Cl)c3)C(=O)N2C1` (centres unmarked) [Example 37, 5-(4-Bromobenzyl)-3-(3,5-dichlorophenyl)-7-carboxymethyl-1,3-diazabicyclo[3.3.0]oct-6-ene-2,4-dione] returned a melting point of 101.5 °C.

`N#Cc1cc(CC23CCCN2C(=O)N(c2cc(Cl)nc(Cl)c2)C3=O)ccc1O` (centres unmarked) [Example 197, 5-(3-Cyano-4-hydroxybenzyl)-3-(2,6-dichloro-4-pyridyl)-1,3-diazabicyclo[3.3.0]octane-2,4-dione]: the melting point amounted to 113.5 °C.

With `O=C1N(c2cccc(F)c2)C(=O)C2(Cc3ccc(Br)cc3)CCCN12` (centres unmarked) [Example 238], the melting point stood at 120.9 °C.

Take `COc1c(Cl)cc(N2C(=O)N3CCCC3(Cc3ccc(C#N)cc3)C2=O)cc1Cl` (centres unmarked) [Example 139, 5-(4-Cyanobenzyl)-3-(3,5-dichloro-4-methoxyphenyl)-1,3-diazabicyclo[3.3.0]octane-2,4-dione]: the melting point is 95.1 °C.

`CC(C)(C)OC(=O)c1ccc(C(=O)N[C@H]2CN3C(=O)N(c4cc(Cl)cc(Cl)c4)C(=O)[C@@]3(Cc3ccc(Br)cc3)C2)cc1` [Example 80, (5R, 7R)-5-(4-Bromobenzyl)-3-(3,5-dichlorophenyl)-7-(4-t-butoxycarbonylbenzoylamino)-1,3-diazabicyclo[3.3.0]octane-2,4-dione] came in with a melting point of 112 °C.

As to `O=C1N(c2cc(Cl)cc(Cl)c2)C(=O)C2(Cc3ccc(-c4cccnc4)cc3)CCCCN12` (centres unmarked) [Example 7, 6-[4-(3-Pyridyl)benzyl]-8-(3,5-dichlorophenyl)-1,8-diazabicyclo[4.3.0]nonane-7,9-dione], the melting point is 276.5 °C.

Consider `N[C@@H]1CN2C(=O)N(c3cc(Cl)cc(Cl)c3)C(=O)[C@@]2(Cc2ccc(Br)cc2)C1` [Example 47, (5R,7S)-5-(4-Bromobenzyl)-3-(3,5-dichlorophenyl)-7-amino-1,3-diazabicyclo[3.3.0]octane-2,4-dione], for which the melting point was found to be 64.4 °C.

The molecule `O=C1N(c2cccc(C(F)(F)F)c2)C(=O)C2(Cc3ccc(Br)cc3)CCCN12` (centres unmarked) [Example 233] gave a melting point of 82.6 °C.

Molecule `Cc1cc([C@H]2CN3C(=O)N(c4cc(Cl)nc(Cl)c4)C(=O)[C@]3(Cc3ccc(OC(F)(F)F)cc3)C2)c(C)[nH]1` [Example 288, (5R, 7S)-5-[4-(Trifluoromethoxy)benzyl]-3-(2,6-dichloro-4-pyridyl)-7-(2,5-dimethylpyrrolyl)-1,3-diazabicyclo[3.3.0]octane-2,4-dione] displayed a melting point of 112.4 °C.

`CC(=O)NC1CN2C(=O)N(c3cc(Cl)nc(Cl)c3)C(=O)C2(Cc2ccc(OC(F)(F)F)cc2)C1` (centres unmarked) [Example 283]: the melting point came out at 122.7 °C.

`O=C1N(c2cc(Cl)nc(Cl)c2)C(=O)C2(Cc3ccc(OC(F)(F)F)cc3)C[C@H](n3cccc3)CN12` (stereo in doubt) [Example 251, (5R, 7S)-5-[4-(Trifluoromethoxy)benzyl]-3-(2,6-dichloro-4-pyridyl)-7-(1-pyrrolyl)-1,3-diazabicyclo[3.3.0]octane-2,4-dione]: the melting point was found to be 129.5 °C.

Molecule `COC(=O)N[C@@H]1CN2C(=O)N(c3cc(Cl)nc(Cl)c3)C(=O)[C@@]2(Cc2ccc(OC(F)(F)F)cc2)C1` [Example 250, (5R, 7S)-5-[4-(Trifluoromethoxy)benzyl]-3-(2,6-dichloro-4-pyridyl)-7-methoxycarbonylamino-1,3-diazabicyclo[3.3.0]octane-2,4-dione] showed a melting point of 119.8 °C.

In turn, `CS(=O)(=O)c1ccc(CC23CCCN2C(=O)N(c2cc(Cl)cc(Cl)c2)C3=O)cc1` (centres unmarked) [Example 190, 5-(4-Methylsulfonylbenzyl)-3-(3,5-dichlorophenyl)-1,3-diazabicyclo[3.3.0]octane-2,4-dione] displayed a melting point of 80.3 °C.

For `O=C1N(c2cc(Cl)cc(Cl)c2)C(=O)C2(Cc3ccc(Br)cc3)CC(F)(F)CN12` (centres unmarked) [Example 110, 5-(4-Bromobenzyl)-3-(3,5-dichlorophenyl)-7,7-difluoro-1,3-diazabicyclo[3.3.0]octane-2,4-dione], the melting point amounted to 160.3 °C.

In turn, `N#Cc1ccc(CC23CCCN2C(=O)N(c2cc(Cl)cc(-n4cccc4)c2)C3=O)cc1` (centres unmarked) [Example 51, 5-(4-Cyanobenzyl)-3-[3-chloro-5-(1-pyrrolyl)-phenyl]-1,3-diazabicyclo[3.3.0]octane-2,4-dione] showed a melting point of 266.5 °C.

For `CNC(=O)c1ccc(CC23CCCCN2C(=O)N(c2cc(Cl)cc(Cl)c2)C3=O)cc1` (centres unmarked) [Example 157], the melting point is 78.7 °C (dec.).

`CN1CCN(C(=O)CCC(=O)N[C@@H]2CN3C(=O)N(c4cc(Cl)nc(Cl)c4)C(=O)[C@@]3(Cc3ccc(OC(F)(F)F)cc3)C2)CC1` [Example 69, (5R,7S)-5-[4-(Trifluoromethoxy)benzyl]-3-(2,6-dichloro-4-pyridyl)-7-[3-(4-methyl-1-piperazinylcarbonyl)propanoylamino]-1,3-diazabicyclo[3.3.0]octane-2,4-dione]: the melting point stood at 70 °C.

`O=C(c1ccc(Cl)c(Cl)c1)N1C(=O)N2CCCC2(Cc2ccc(Br)cc2)C1=O` (centres unmarked) [Example 109, 5-(4-Bromobenzyl)-3-(3,4-dichlorobenzoyl)-1,3-diazabicyclo[3.3.0]octane-2,4-dione] had a melting point of 158 °C.

In the case of `N#Cc1ccc(C[C@]23C[C@@H](O)CN2C(=O)N(c2cc(Cl)nc(Cl)c2)C3=O)cc1` [Example 60, (5R,7R)-5-(4-Cyanobenzyl)-3-(2,6-dichloro-4-pyridyl)-7-hydroxy-1,3-diazabicyclo[3.3.0]octane-2,4-dione], the melting point was 97.6 °C.

On to `N#Cc1ccc(CC23CCCN2C(=O)N(CCc2cccc(Cl)c2)C3=O)cc1` (centres unmarked) [Example 107, 5-(4-Cyanobenzyl)-3-[2-(3-chlorophenyl)ethyl]-1,3-diazabicyclo[3.3.0]octane-2,4-dione], for which the melting point is 148 °C.

`O=C1CN2C(=O)N(c3cc(Cl)nc(Cl)c3)C(=O)[C@@]2(Cc2ccc(OC(F)(F)F)cc2)C1` [Example 70, (5R)-5-[4-(Trifluoromethoxy)benzyl]-3-(2,6-dichloro-4-pyridyl)-7-oxo-1,3-diazabicyclo[3.3.0]octane-2,4-dione] returned a melting point of 166 °C.

For the molecule `O=C1N(c2cc(Cl)nc(Cl)c2)C(=O)C2(Cc3cccc([N+](=O)[O-])c3)CCCN12` (centres unmarked) [Example 239, 5-(3-Nitrobenzyl)-3-(2,6-dichloro-4-pyridyl)-1,3-diazacyclo[3.3.0]octane-2,4-dione], the melting point was found to be 182.8 °C.

In the case of `CN(C)CCCC(=O)N[C@@H]1CN2C(=O)N(c3cc(Cl)cc(Cl)c3)C(=O)[C@@]2(Cc2ccc(OC(F)(F)F)cc2)C1` [Example 302, (5R, 7S)-5-[4-(Trifluoromethoxy)benzyl]-3-(3,5-dichlorophenyl)-7-[[4-(dimethylamino)butyryl]amino]-1,3-diazabicyclo[3.3.0]octane-2,4-dione], the melting point stood at 57.9 °C.

In turn, `CC(=O)NC(CC(=O)N[C@@H]1CN2C(=O)N(c3cc(Cl)nc(Cl)c3)C(=O)[C@@]2(Cc2ccc(OC(F)(F)F)cc2)C1)C(N)=O` (stereo partly drawn) [Example 256, (5R, 7S)-5-[4-(Trifluoromethoxy)benzyl]-3-(2,6-dichloro-4-pyridyl)-7-[(3-carbamoyl-3-acetylaminopropanoyl)amino]-1,3-diazabicyclo[3.3.0]octane-2,4-dione] returned a melting point of 152.8 °C.

Regarding `O=C(O)CNC(=O)c1c(Cl)cc(N2C(=O)N3CCCC3(Cc3ccc(Br)cc3)C2=O)cc1Cl` (centres unmarked) [Example 227, 5-(4-Bromobenzyl)-3-[3,5-dichloro-4-(carboxymethylcarbamoyl)phenyl]-1,3-diazabicyclo[3.3.0]octane-2,4-dione], the melting point is 157 to 158 °C.

The molecule `O=C1N(c2cc(Cl)nc(Cl)c2)C(=O)[C@]2(Cc3ccc(OC(F)(F)F)cc3)C[C@@H](O)CN12` [Example 59, (5S,7R)-5-[4-(Trifluoromethoxy)benzyl]-3-(2,6-dichloro-4-pyridyl)-7-hydroxy-1,3-diazabicyclo[3.3.0]octane-2,4-dione] yielded a melting point of 162.3 °C.

Turning to `CNC(=O)C1CN2C(=O)N(c3cc(Cl)cc(Cl)c3)C(=O)C2(Cc2ccc(OC(F)(F)F)cc2)C1` (centres unmarked) [Example 314], the melting point worked out at 212.6 °C.

Regarding `CS(=O)(=O)N1CCN2C(=O)N(c3cc(Cl)cc(Cl)c3)C(=O)C2(Cc2ccc(Br)cc2)C1` (centres unmarked) [Example 33, 4-Methanesulfonyl-6-(4-bromobenzyl)-8-(3,5-dichlorophenyl)-1,4,8-triazabicyclo[4.3.0]nonane-7,9-dione], the melting point was found to be 229 °C.

`CSc1cccc(N2C(=O)N3CCCC3(Cc3ccc(Br)cc3)C2=O)c1` (centres unmarked) [Example 231]: the melting point worked out at 84.8 °C.

`CC(C)(C)OC(=O)N1CCN2C(=O)N(c3cc(Cl)cc(Cl)c3)C(=O)C2(Cc2ccc(Br)cc2)C1` (centres unmarked) (as salt: Na) [Example 26, 4-(tert-Butoxycarbonyl)-6-(4-bromobenzyl)-8-(3,5-dichlorophenyl)-1,4,8-triazabicyclo[4.3.0]nonane-7,9-dione] displayed a melting point of 79.5 °C.

Take `O=C(O)c1ccc(CC23CCCCN2C(=O)N(c2cc(Cl)cc(Cl)c2)C3=O)cc1` (centres unmarked) [Example 156]: the melting point is 256.2 °C (dec.).
